Source: patent US20130131161A1, “METHODS AND COMPOSITIONS FOR CARDIOVASCULAR DISEASES AND CONDITIONS” (priority 2009, published 2013)
Values joined by “and” are separate entries in the source; they are usually repeats but may differ in a detail not shown here. Equal values may be shown once.

System: eNOS
Experiment: eNOS protein abundance in HUVECs by immunochemical methods (Example 2)
Type: cell-based, human
Settings: for eNOS protein abundance (mean ± sd): pg/ug total protein; for Fold difference eNOS protein abundance (mean ± sd): (LA-419 5 μM)/(control)
From the text: eNOS Activity and Protein Abundance Measurements
Using immunochemical methods, there was no change in any condition in relation to eNOS protein abundance, Tables ss-L1.

CC(=O)SC1COC2C(O[N+](=O)[O-])COC12 (stereo not drawn) [LA-419, S-(6-Nitro-oxi-hexahydro-furo[3,2-b]furan-3-1-il)thioacetate]
eNOS protein abundance % Change (mean ± sd) (5 μM LA-419, Intron 4 variant b/a, a/a, c/c (n=14)): 0.32 (9.26) %
eNOS protein abundance % Change (mean ± sd) (5 μM LA-419, Intron 4 variant b/b (n=31)): −1.78 (6.88) %
eNOS protein abundance (mean ± sd) (5 μM LA-419, G894T + T786C G/G + T/C, n=8): 6.27 (1.56) pg/ug
eNOS protein abundance (mean ± sd) (5 μM LA-419, G894T + T786C G/G + T/T, n=18): 6.17 (1.24) pg/ug
eNOS protein abundance (mean ± sd) (5 μM LA-419, G894T + T786C G/T + C/C, n=1): 7.25 (0) pg/ug
eNOS protein abundance (mean ± sd) (5 μM LA-419, G894T + T786C G/T + T/C, n=13): 5.59 (1.08) pg/ug
eNOS protein abundance (mean ± sd) (5 μM LA-419, G894T + T786C G/T + T/T, n=4): 5.82 (1.49) pg/ug
eNOS protein abundance (mean ± sd) (5 μM LA-419, G894T + T786C T/T + C/C, n=3): 6.47 (1.34) pg/ug
eNOS protein abundance (mean ± sd) (5 μM LA-419, G894T + T786C T/T + T/C, n=2): 4.52 (0.30) pg/ug
eNOS protein abundance (mean ± sd) (5 μM LA-419, G894T G/G, n=26): 6.20 (1.31) pg/ug
eNOS protein abundance (mean ± sd) (5 μM LA-419, G894T G/T & T/T, n=23): 5.72 (1.20) pg/ug
eNOS protein abundance (mean ± sd) (5 μM LA-419, G894T G/T, n=18): 5.73 (1.17) pg/ug
eNOS protein abundance (mean ± sd) (5 μM LA-419, G894T T/T, n=5): 5.69 (1.44) pg/ug
eNOS protein abundance (mean ± sd) (5 μM LA-419, Genotype Combination, n=31 (title: Combination = G/G + T/T, G/G + T/C, G/G/+C/C, G/T + T/T, G/T + T/C, G/T + C/C, T/T + T/C)): 5.86 (1.30) pg/ug
eNOS protein abundance (mean ± sd) (5 μM LA-419, Genotype Reference, n=18 (title: Reference group = T/T + C/C)): 6.17 (1.24) pg/ug
eNOS protein abundance (mean ± sd) (5 μM LA-419, Intron 4 a/a, n=3): 7.17 (1.19) pg/ug
eNOS protein abundance (mean ± sd) (5 μM LA-419, Intron 4 b/a, a/a, c/c, n=14): 6.31 (1.50) pg/ug
eNOS protein abundance (mean ± sd) (5 μM LA-419, Intron 4 b/a, n=10): 5.95 (1.56) pg/ug
eNOS protein abundance (mean ± sd) (5 μM LA-419, Intron 4 b/b, n=31): 5.75 (1.13) pg/ug
eNOS protein abundance (mean ± sd) (5 μM LA-419, Intron 4 c/c, n=1): 7.39 (0) pg/ug
eNOS protein abundance (mean ± sd) (5 μM LA-419, T-786C CC, n=4): 6.67 (1.16) pg/ug
eNOS protein abundance (mean ± sd) (5 μM LA-419, T-786C T/C & C/C, n=27): 5.87 (1.30) pg/ug
eNOS protein abundance (mean ± sd) (5 μM LA-419, T-786C T/C, n=23): 5.73 (1.29) pg/ug
eNOS protein abundance (mean ± sd) (5 μM LA-419, T-786C T/T, n=22): 6.11 (1.26) pg/ug
eNOS protein abundance % Change (mean ± sd) (5 μM LA-419 vs control, n=2): −4.89 (0.49) %
eNOS protein abundance % Change (mean ± sd) (5 μM LA-419 vs control, G894T G/G, n=26): −1.07 (8.07) %
eNOS protein abundance % Change (mean ± sd) (5 μM LA-419 vs control, G894T G/T, n=18): −0.79 (7.54) %
eNOS protein abundance % Change (mean ± sd) (5 μM LA-419 vs control, G894T T/T, n=5): −1.54 (6.56) %
eNOS protein abundance % Change (mean ± sd) (5 μM LA-419 vs control, Intron 4 a/a, n=3): 1.11 (10.89) %
eNOS protein abundance % Change (mean ± sd) (5 μM LA-419 vs control, Intron 4 b/a, n=10): 0.68 (9.65) %
eNOS protein abundance % Change (mean ± sd) (5 μM LA-419 vs control, Intron 4 b/b, n=31): −1.78 (6.88) %
eNOS protein abundance % Change (mean ± sd) (5 μM LA-419 vs control, Intron 4 c/c, n=1): −5.66 (0) %
eNOS protein abundance % Change (mean ± sd) (5 μM LA-419 vs control, Race Asian, n=1): −17.56 (0) %
eNOS protein abundance % Change (mean ± sd) (5 μM LA-419 vs control, Race Black, n=12): −5.95 (6.82) %
eNOS protein abundance % Change (mean ± sd) (5 μM LA-419 vs control, Race Caucasian, n=26): 2.50 (6.89) %
eNOS protein abundance % Change (mean ± sd) (5 μM LA-419 vs control, Race Hispanic, n=6): −1.16 (4.99) %
eNOS protein abundance % Change (mean ± sd) (5 μM LA-419 vs control, Race Not Reported, n=2): −4.62 (0.81) %
eNOS protein abundance % Change (mean ± sd) (5 μM LA-419 vs control, T-786C C/C, n=4): −6.82 (6.09) %
eNOS protein abundance % Change (mean ± sd) (5 μM LA-419 vs control, T-786C T/C, n=23): −0.37 (9.0) %
eNOS protein abundance % Change (mean ± sd) (5 μM LA-419 vs control, T-786C T/T, n=22): −0.64 (5.88) %
Fold difference eNOS protein abundance (mean ± sd) (Combination of all G894T + T-786C genotypes but G/G + T/T, n=31): 0.99 (0.09)
Fold difference eNOS protein abundance (mean ± sd) (Combination of all G894T + T-786C genotypes but T/T + C/C, n=46): 0.99 (0.08)
Fold difference eNOS protein abundance (mean ± sd) (G894T + T-786C G/G + T/C, n=8): 0.98 (0.12)
Fold difference eNOS protein abundance (mean ± sd) (G894T + T-786C G/G + T/T, n=18): 0.99 (0.06)
Fold difference eNOS protein abundance (mean ± sd) (G894T + T-786C G/T + C/C, n=1): 0.88 (0)
Fold difference eNOS protein abundance (mean ± sd) (G894T + T-786C G/T + T/C, n=13): 1.00 (0.07)
Fold difference eNOS protein abundance (mean ± sd) (G894T + T-786C G/T + T/T, n=4): 1.00 (0.08)
Fold difference eNOS protein abundance (mean ± sd) (G894T + T-786C T/T + C/C, n=3): 0.95 (0.06)
Fold difference eNOS protein abundance (mean ± sd) (G894T + T-786C T/T + T/C, n=2): 1.04 (0.01)
Fold difference eNOS protein abundance (mean ± sd) (G894T G/G & G/T, n=44): 0.99 (0.08)
Fold difference eNOS protein abundance (mean ± sd) (G894T G/G, n=26): 1.00 (0.08) and 0.99 (0.08)
Fold difference eNOS protein abundance (mean ± sd) (G894T G/T & T/T, n=23): 0.99 (0.07)
Fold difference eNOS protein abundance (mean ± sd) (G894T G/T, n=18): 0.99 (0.08)
Fold difference eNOS protein abundance (mean ± sd) (G894T T/T, n=5): 0.98 (0.07)
Fold difference eNOS protein abundance (mean ± sd) (Intron 4 a/a, n=3): 1.01 (0.11)
